The structures appear in SMILES notation. ≈ marks a conversion by molar mass, not a printed value. Bounds are passed on as bounds.

The conditions of the data set: buffer; pH 7.4; 6.0 h; 150.0 µM.
Consider `Cc1cc(C)nc(NC(=S)N2CCN(c3cccc([N+](=O)[O-])c3)CC2)c1`, for which the solubility (kinetic) was determined as 4.04 µg/mL (≈ 10.9 µM). The value for `Cn1nnnc1Sc1ncnc2scc(-c3cccc(S(C)(=O)=O)c3)c12` was 44.8 µg/mL (≈ 111 µM). As to `CN(C)c1cccc(-c2c3c(=O)n(-c4ccccc4Cl)[nH]c3cc(=O)n2C)c1`, the kinetic solubility came to 46.5 µg/mL (≈ 118 µM). As to `Cn1ccc2c(C(=O)NCc3cccnc3)nc(-c3ccccc3C#N)cc21`, the kinetic solubility was under 1 µg/mL. As to `NC(=O)c1ccc(-c2ncc3cnc(-c4cccc(F)c4)cn23)cc1`, the kinetic solubility came out at 10.9 µg/mL (≈ 32.8 µM). `CCCOC(=O)c1ccc(Oc2c(-c3ccc(O)cc3O)n[nH]c2C)cc1` displayed a kinetic solubility of under 1 µg/mL. In turn, `FC(F)(F)c1cccc(N2CCN(C(=S)Nc3nccc4ccccc34)CC2)c1` gave a kinetic solubility of under 1 µg/mL. With `CCc1c(C)nc2c(-c3cnn(-c4cc(CO)ccn4)c3)c[nH]n2c1=O`, the solubility (kinetic) stood at 10.1 µg/mL (≈ 28.7 µM). Compound `Oc1ccc(CNc2cccnc2)c2cccnc12` showed a kinetic solubility of 24.5 µg/mL (≈ 97.5 µM). `O=C(O)c1c(Sc2ccccc2)c2cc(Cl)ccc2n1Cc1ccc(Cl)cc1` showed a solubility (kinetic) of over 63 µg/mL. The value for `Cc1sc(NC(=O)Cc2ccc3c(c2)OCO3)nc1-c1ccc2c(c1)CCN2C(=O)C1CCCCC1` was under 1 µg/mL.

With `CN(C)[C@@H]1CCN(c2cccc(Nc3nn4c(=O)c5ccccc5nc4s3)c2)C1`, the solubility (kinetic) was found to be 18.1 µg/mL (≈ 44.4 µM). In turn, `Cc1cccc2nc(-c3ccccn3)c(Nc3ccc(F)cc3)n12` displayed a solubility (kinetic) of 34.2 µg/mL (≈ 107 µM). As for `COC(=O)Nc1nc2ccc(SC(C)C)cc2[nH]1`, the kinetic solubility was under 1 µg/mL. Compound `CC(=O)c1c(C)[nH]c(C(=O)Nc2cccc([S+](=O)([O-])Nc3ccccn3)c2)c1C` had a solubility (kinetic) of over 61 µg/mL.

Regarding `Cc1ccc(S(=O)(=O)N2CCCc3cc(NS(=O)(=O)c4ccccc4)ccc32)cc1`, the kinetic solubility is under 1 µg/mL.

`CC(=O)C1CCN(c2ncc(-c3cccc(N(C)C)c3)s2)CC1` came in with a kinetic solubility of 3.33 µg/mL (≈ 10.1 µM). The result for `Cc1ccnc(NC(=S)N2CCC(Nc3cccc(C(F)(F)F)c3)CC2)c1` reads 6.4 µg/mL (≈ 16.2 µM); that for `CC(C)c1ccccc1-c1nc(NCc2ccc(-c3cccnc3)cc2)c2ccccc2n1`, under 1 µg/mL. `COc1ccc(S(=O)(=O)N2CCCCCC2)cc1NC(=O)Cc1n[nH]c(=O)c2ccccc12` came in with a kinetic solubility of 8.46 µg/mL (≈ 18 µM).

In turn, `CN(Cc1ccccc1)C(=O)c1ccc(S(=O)(=O)Nc2ccccc2)cc1` returned a solubility (kinetic) of 22.5 µg/mL (≈ 59.2 µM).

Compound `O=S(=O)(Nc1nc2n(n1)C(c1ccccc1)C=C(c1ccc(Cl)cc1)N2)c1ccccc1` (stereo not drawn) showed a solubility (kinetic) of 1.09 µg/mL (≈ 2.36 µM). The result for `CC(C)CNC(=O)c1cn2cc(-c3ccccc3)sc2n1` reads 5.33 µg/mL (≈ 17.8 µM); that for `c1cc(-c2cc(-c3ccncc3)c3cncn3c2)c2[nH]ncc2c1`, 2.43 µg/mL (≈ 7.8 µM); that for `Cc1ccc(S(=O)(=O)Nc2ccc(C(=O)Nc3nc(-c4ccccc4)cs3)cc2Cl)cc1`, under 1 µg/mL. With `O=C1Nc2ccc(I)cc2/C1=C/c1cc(Br)c(O)c(Br)c1`, the solubility (kinetic) was under 1 µg/mL.

The compound `COc1c(O)ccc2c1CN1CCc3cc4c(cc3[C@@H]1C2)OCO4` yielded a kinetic solubility of 19.6 µg/mL (≈ 60.2 µM). The compound `CSc1ccc(C(=O)c2[nH]c(=O)[nH]c2C)cc1` showed a kinetic solubility of over 37 µg/mL. In the case of `O=[N+]([O-])c1ccc(-c2nc(Nc3ccc(F)c(F)c3)c3ccccc3n2)cc1`, the solubility (kinetic) was under 1 µg/mL.

In the case of `Cc1ccc(C(N)=O)cc1Nc1nccc(-c2cn(C(C)C)c3cnccc23)n1`, the solubility (kinetic) came to 45.2 µg/mL (≈ 117 µM). Consider `CN(C)c1cccc(-c2ccnc(N3CCC(C(N)=O)CC3)n2)c1`, for which the kinetic solubility worked out at 39.1 µg/mL (≈ 120 µM). `CN(C)c1cccc(-c2ncc(F)c(N3CCC(C(N)=O)CC3)n2)c1`: the kinetic solubility is over 51 µg/mL. Compound `Cc1ccc(-c2nc(NCC(=O)Nc3cccc(C(=O)O)c3)c3ccccc3n2)cc1` gave a kinetic solubility of over 61 µg/mL. Consider `Cc1cc(C)c(CNC(=O)c2nc(-c3ccc(CN(C)C)cc3)cc3c2ccn3C(C)C)c(=O)[nH]1`, for which the solubility (kinetic) turned out to be 40.3 µg/mL (≈ 85.4 µM). `Cc1ccccc1C(=O)Nc1ccc2c(c1)CCCN2C(=O)c1cccs1` had a solubility (kinetic) of 7.15 µg/mL (≈ 19 µM).

As for `CO[C@@H]1[C@H](N(C)C(=O)c2ccccc2)C[C@H]2O[C@]1(C)n1c3ccccc3c3c4c(c5c6ccccc6n2c5c31)C(=O)NC4`, the solubility (kinetic) was under 1 µg/mL. The result for `CC(=O)c1c(C)[nH]c(C(=O)Nc2ccc(C)c(S(=O)(=O)Nc3ccc(Br)cc3)c2)c1C` reads under 1 µg/mL.

In turn, `NC(=O)c1cccc(-c2cc(Nc3ccc(OC(F)(F)F)cc3)ncn2)c1` had a kinetic solubility of under 1 µg/mL. `C=C1C(=O)O[C@@H]2[C@H]3O[C@]3(C)CC/C=C(\C)CC[C@@H]12`: the kinetic solubility is 7.28 µg/mL (≈ 29.3 µM). The compound `Cc1c(-c2cccc(NC(=O)c3ccc(F)c(F)c3)c2)nc2ncccn12` came in with a kinetic solubility of 7.47 µg/mL (≈ 20.5 µM).

As to `Cc1cnc(-c2ccccc2C(C)C)nc1NCC1CCN(c2cccnc2)CC1`, the kinetic solubility was under 1 µg/mL. In turn, `CC(=O)c1c(C)[nH]c(C(=O)Nc2cccc([S+](=O)([O-])Nc3ccccc3C)c2)c1C` returned a kinetic solubility of under 1 µg/mL. Turning to `Cc1ccc(S(=O)(=O)Nc2ccccc2CNc2nc(-c3ccccc3)cs2)cc1`, the kinetic solubility is under 1 µg/mL.

Consider `O=C(NC1CCCc2c1[nH]c1ccc(Cl)cc21)c1ccncc1` (stereo not drawn), for which the solubility (kinetic) is under 1 µg/mL. `Cc1ccc(S(=O)(=O)n2cc(C(=O)Nc3ccc(-c4ccccc4)cc3)c3ccccc32)cc1` gave a kinetic solubility of under 1 µg/mL. `O=C(NCc1cccnc1)c1nc(-c2ccc(Cl)nc2)c2cnccn12` returned a solubility (kinetic) of 4.69 µg/mL (≈ 12.9 µM). `CCc1cccc(NC(=O)c2cc(-c3ccc[nH]3)n[nH]2)c1` yielded a kinetic solubility of 4.59 µg/mL (≈ 16.4 µM). `CC1=C[C@@H](CNC(C)C)[C@H](C(C)C)C[C@H]1Cc1nnc(-c2ccncc2)o1` gave a kinetic solubility of over 54 µg/mL.

Regarding `CC(=O)c1c(C)[nH]c(C(=O)Nc2ccc(Cl)cc2)c1C`, the kinetic solubility was 1.96 µg/mL (≈ 6.72 µM).

Turning to `Nc1ccc(S(=O)(=O)Nc2cnccc2C(=O)Nc2nc(-c3ccccc3)cs2)cc1`, the kinetic solubility came to 43.2 µg/mL (≈ 95.7 µM).

On to `CC(C)CC(=O)Nc1n[nH]c2c1CN(C(=O)C1CCN(C)CC1)C2(C)C`, for which the solubility (kinetic) was over 53 µg/mL.

Take `CCOc1ccc(CCNC(=O)c2cc3ccncc3n2Cc2cccc(C)n2)cc1OCC`: the solubility (kinetic) is over 68 µg/mL. For `Cc1ccc(-c2nc(C)c(C(=O)Nc3ccc4c(c3)C(=O)N3CCC[C@H]3C(=O)N4)s2)cc1`, the kinetic solubility stood at 4.88 µg/mL (≈ 10.9 µM). With `Cc1cc(C)nc(NC(=S)N2CCN(c3ccc(Cl)cc3F)CC2)c1`, the kinetic solubility was 3.36 µg/mL (≈ 8.88 µM).

The compound `CN(C)c1cccc(-c2cc(N3CCC(C(N)=O)CC3)ncn2)c1` returned a kinetic solubility of over 48 µg/mL. `CCN(CC)CCCC(C)Nc1cc(/C=C/c2ccccc2Cl)nc2cc(Cl)ccc12` (stereo not drawn): the kinetic solubility was determined as 25.4 µg/mL (≈ 55.7 µM). As for `Cc1ccc(NC2=C(c3ccc(C(F)(F)F)cc3)C(=O)c3ccccc32)cc1F`, the kinetic solubility is under 1 µg/mL. Turning to `Cc1ccc2oc(NC3=NC(c4[nH]ncc4Cl)C4=C(CCCC4=O)N3)nc2c1` (stereo not drawn), the kinetic solubility was determined as 1.35 µg/mL (≈ 3.41 µM). `Cc1ccc(S(=O)(=O)Nc2cccnc2C(=O)Nc2nc(-c3ccccc3)cs2)cc1` displayed a kinetic solubility of under 1 µg/mL. `COc1ccc(-n2nc(C3CCN(C(=O)C4CC4)CC3)[nH]c2=O)cc1`: the solubility (kinetic) was over 51 µg/mL.

On to `Fc1ccc(Nc2ccnc(-c3ccncc3)n2)cc1F`, for which the kinetic solubility amounted to 1.22 µg/mL (≈ 4.27 µM).

In the case of `CSc1ccc(-c2cnc(N3CCC(C(N)=O)CC3)s2)cc1`, the solubility (kinetic) was under 1 µg/mL. In turn, `Cc1ccc(S(=O)(=O)Nc2cnccc2C(=O)Nc2nc(-c3cccc(F)c3)cs2)cc1` displayed a kinetic solubility of 0.167 µg/mL (≈ 0.356 µM). The value for `Cc1cc(-c2nnc3n2CCCCC3)c(C)n1-c1cccc(C#N)c1` was over 49 µg/mL; that for `CN(C)c1ccc2cc(C(=O)N[C@@H](CCCN=C(N)CCl)C(=O)NCc3ccccc3)ccc2c1` was 52.4 µg/mL (≈ 106 µM).

For `O=C1CCCC2=C1C(c1ccncc1Br)N=C(Nc1nc3ccccc3o1)N2` (stereo not drawn), the kinetic solubility was under 1 µg/mL. `Cn1nnnc1Sc1ncnc2scc(-c3ccc(F)cc3)c12` returned a kinetic solubility of 15.3 µg/mL (≈ 44.5 µM). `O=C(O)c1ccc(-c2c[nH]c3ncc(-c4ccccc4)cc23)cc1C1CCCC1` returned a kinetic solubility of 7.57 µg/mL (≈ 19.8 µM). Turning to `CNc1oc(-c2cccc(-c3ccccc3)c2)nc1C#N`, the solubility (kinetic) was under 1 µg/mL.

As to `Cc1ccccc1C(=O)n1ccc2cc(-c3nc(NC(=O)Cc4ccc5c(c4)OCO5)sc3C)ccc21`, the kinetic solubility is under 1 µg/mL. The result for `Cc1ccnc(C)c1C(=O)Nc1cccc([S+](=O)([O-])N(C)C)c1` reads over 49 µg/mL; that for `O=C(Nc1cccc(C(F)(F)F)c1)c1ccccc1NC(=O)C1CCCCC1`, under 1 µg/mL; that for `O=C1Nc2ccccc2/C1=C/c1ccnc2ccccc12`, 3.07 µg/mL (≈ 11.3 µM). In the case of `CC(=O)c1c(C)[nH]c(C(=O)Nc2cccc([S+](=O)([O-])Nc3ccncc3)c2)c1C`, the kinetic solubility is over 61 µg/mL. For the compound `O=[S+]([O-])(Nc1nccs1)c1ccc(NCc2cc(F)cc(Cl)c2O)cc1`, the kinetic solubility was 18.5 µg/mL (≈ 44.7 µM).

The compound `CC(C)(C)c1ccc(-n2cnc3cc(C(=O)N4CCCCC4)ccc32)cc1` returned a kinetic solubility of under 1 µg/mL. The value for `Cc1ccc(S(=O)(=O)Nc2ccc(C)cc2C(=O)Nc2nc(-c3ccccc3)cs2)cc1` was under 1 µg/mL; that for `COc1cccc(CNc2ccc(S(=O)(=O)Nc3cccs3)cc2)c1O` was 11.6 µg/mL (≈ 29.6 µM); that for `CCOc1ccc(N2CC(c3nc(-c4cc(OC)c(OC)c(OC)c4)no3)CC2=O)cc1` (stereo not drawn) was 2.38 µg/mL (≈ 5.41 µM). On to `Cc1ccc(S(=O)(=O)Nc2ccccc2C(=O)Nc2ccc(-c3ccccc3)cc2)cc1`, for which the kinetic solubility is under 1 µg/mL. With `Fc1cc(Nc2nc(-c3ccncc3)nc3ccccc23)ccc1-c1cc(F)c(F)c(F)c1`, the solubility (kinetic) was under 1 µg/mL. In turn, `Cc1cccc(-n2cnc3cc(C(=O)N4CCCCCC4)ccc32)c1` returned a solubility (kinetic) of 41.2 µg/mL (≈ 124 µM).

The compound `CCN(CC)CCNC(=O)C1CCN(c2nn3cc(-c4ccc(F)cc4)nc3s2)CC1` yielded a solubility (kinetic) of over 66 µg/mL. The value for `COc1ccccc1-c1nc(NCc2ccc(-c3cccnc3)cc2)c2ccccc2n1` was under 1 µg/mL.

In turn, `O=C(NCCc1ccccn1)C1CC(=O)N(c2n[nH]c3cc(Br)ccc23)C1` (stereo not drawn) registered a solubility (kinetic) of 5.42 µg/mL (≈ 12.7 µM). Take `CC(=O)Nc1ccc(CN2CCc3nc(C(C)C)nc(-c4ccc(Cl)cc4)c3CC2)cc1`: the kinetic solubility was 33.1 µg/mL (≈ 73.7 µM). Consider `COc1cccc(Cn2c(=O)n(-c3cccc(Cl)c3C)c(=O)c3c4c(sc32)CN(C(C)=O)CC4)c1`, for which the solubility (kinetic) is under 1 µg/mL. The compound `NC(=O)C1CCN(c2nc(-c3cccc4sc5ccccc5c34)cs2)CC1` gave a solubility (kinetic) of under 1 µg/mL.

Values taken from PubChem BioAssay AID1645848.
